Reference: patent US20240358693A1, “METHODS OF TREATING PAIN” (Aisa Pharma, Inc., priority 2023, published 2024)

Test system: participants with Raynaud's Phenomenon secondary mostly to systemic sclerosis (SSc-RP)
Assay: Frequency of weekly symptomatic RP attacks (patient diary), Phase 2a study Part A
Format: in vivo, human
Details: ITT Part A
Description: A randomized, placebo-controlled phase 2a study was performed and is in progress to assess the safety and efficacy of cilnidipine (10 mg and 20 mg) alone and in combination with 5 mg tadalafil, in participants with diagnosis of scleroderma and/or secondary Raynaud's disease.
The relevant metrics measured by this tool daily are: • Study medication • SSc-RP symptoms (Reporting an attack including duration of attack) • Severity of the attack considering all symptoms of the attack e.g., tingling, numbness, pain, color changes (VAS 0-10 cm scale) • Participant's location at the time of the attack (inside home/outside home) • Selecting symptoms experienced during the attack (tingling, numbness, pain, color changes, other) • Pain rating during the attack (11-point Likert scale) • The RCS based on how much difficulty participants had with Raynaud's today, how many attacks the participant had, and how long they lasted. Participants will also be asked to consider how much pain, numbness, or other symptoms the Raynaud's caused in fingers (including painful sores), and how much the Raynaud's alone affected the use of hands today (VAS 0-10 cm scale).
Percent change from baseline evaluation for frequency of weekly RP attacks were or will be used as the primary efficacy variable. The sponsor-developed participant-informed diary will be used to record data. Frequency of weekly RP attacks is defined as the total number of RP attacks divided by the number of days with available diary data within the last 7 days of each dosing period then multiplied by 7. Total number of RP attacks during the last 7 days of screening period divided by the number of days with available data then multiplied by 7 will be used as baseline for the analysis of all periods. The variable will be calculated as follows:
Percentage change={(weekly RP attacks for the last 7 days of each dosing period−Baseline weekly RP attacks)/Baseline weekly RP attacks}*100%.
Absolute change=weekly RP attacks for the last 7 days of each dosing period−Baseline weekly RP attacks
Percent change from baseline evaluation for frequency of weekly RP attacks was and will be the primary efficacy endpoint. Frequency of weekly RP attacks is defined as the total number of RP attacks divided by the number of days with available diary data within the last 7 days of each dosing period then multiplied by 7. Total number of RP attacks during the last 7 days of screening period divided by the number of days with available data then multiplied by 7 will be used as baseline for the analysis of all periods.
The following data was actually obtained in accordance with the protocol and plan delineated in Examples 1 and 2. The accompanying data involved 11 patients out of the planned 76 patient study. The study was done in patients with scleroderma (systemic sclerosis) who had relatively frequent Raynaud symptoms as they needed to average at least one attack per day during a screening period of up to two weeks. In this first phase of this double-blind placebo-controlled, prospective randomized study, patients were treated in parallel and after meeting study criteria were randomized to receive either placebo, cilnidipine 10 mg daily, cilnidipine 20 mg daily, tadalafil 5 mg daily, cilnidipine 10 mg plus 5 mg of tadalafil, or cilnidipine 20 mg plus 5 mg of tadalafil.

[1] = Cilnidipine 10 mg, n 1, Excluding Outliers
[2] = Cilnidipine 10 mg, n 1, by Baseline RCS, 1st block (RCS <5.0)
[3] = Cilnidipine 20 mg, n 2, Excluding Outliers
[4] = Cilnidipine 20 mg, n 2, by Baseline RCS, 1st block (RCS <5.0)
[5] = Pooled Cilnidipine 10 mg and Cilnidipine 10 mg + Tadalafil 5 mg (N = 3)
[6] = Pooled Cilnidipine 10 mg and Cilnidipine 10 mg + Tadalafil 5 mg, n 1, by Baseline RCS, 2nd block (RCS >5.0)
[7] = Pooled Cilnidipine 10 mg and Cilnidipine 10 mg + Tadalafil 5 mg, n 2, by Baseline RCS, 1st block (RCS <5.0)
[8] = Pooled Cilnidipine 10 mg and Cilnidipine 10 mg + Tadalafil 5 mg, n 3, Excluding Outliers
[9] = Pooled Cilnidipine 20 mg and Cilnidipine 20 mg + Tadalafil 5 mg (N = 4)
[10] = Pooled Cilnidipine 20 mg and Cilnidipine 20 mg + Tadalafil 5 mg, n 1, by Baseline RCS, 2nd block (RCS >5.0)
[11] = Pooled Cilnidipine 20 mg and Cilnidipine 20 mg + Tadalafil 5 mg, n 3, by Baseline RCS, 1st block (RCS <5.0)

Structure (SMILES): COCCOC(=O)C1=C(C)NC(C)=C(C(=O)OC/C=C/c2ccccc2)C1c1cccc([N+](=O)[O-])c1 (stereo not shown) [Cilnidipine, cilnidipine]
- Weekly Symptomatic RP Attacks Change from Baseline, Mean (Cilnidipine 10 mg (N = 1)): −7.00
- Weekly Symptomatic RP Attacks Change from Baseline, Median (Cilnidipine 10 mg (N = 1)): −7.00
- Weekly Symptomatic RP Attacks Percent Change from Baseline, Mean (Cilnidipine 10 mg (N = 1)): −33.33%
- Weekly Symptomatic RP Attacks Percent Change from Baseline, Median (Cilnidipine 10 mg (N = 1)): −33.33%
- Weekly Symptomatic RP Attacks, Mean (Cilnidipine 10 mg (N = 1)): 14.00
- Weekly Symptomatic RP Attacks, Median (Cilnidipine 10 mg (N = 1)): 14.00
- Weekly Symptomatic RP Attacks Change from Baseline, Mean (SD) [1]: −7.00
- Weekly Symptomatic RP Attacks Change from Baseline, Median [1]: −7.00
- Weekly Symptomatic RP Attacks Percent Change from Baseline, Mean (SD) [1]: −33.33%
- Weekly Symptomatic RP Attacks Percent Change from Baseline, Median [1]: −33.33%
- Weekly Symptomatic RP Attacks, Mean (SD) [1]: 14.00
- Weekly Symptomatic RP Attacks, Median [1]: 14.00
- Weekly Symptomatic RP Attacks Change from Baseline, Mean (SD) [2]: −7.00
- Weekly Symptomatic RP Attacks Change from Baseline, Median [2]: −7.00
- Weekly Symptomatic RP Attacks Percent Change from Baseline, Mean (SD) [2]: −33.33%
- Weekly Symptomatic RP Attacks Percent Change from Baseline, Median [2]: −33.33%
- Weekly Symptomatic RP Attacks, Mean (SD) [2]: 14.00
- Weekly Symptomatic RP Attacks, Median [2]: 14.00
- Weekly Symptomatic RP Attacks Change from Baseline, Mean (Cilnidipine 20 mg (N = 2)): −4.50
- Weekly Symptomatic RP Attacks Change from Baseline, Median (Cilnidipine 20 mg (N = 2)): −4.50
- Weekly Symptomatic RP Attacks Percent Change from Baseline, Mean (Cilnidipine 20 mg (N = 2)): −33.73%
- Weekly Symptomatic RP Attacks Percent Change from Baseline, Median (Cilnidipine 20 mg (N = 2)): −33.73%
- Weekly Symptomatic RP Attacks, Mean (Cilnidipine 20 mg (N = 2)): 8.00
- Weekly Symptomatic RP Attacks, Median (Cilnidipine 20 mg (N = 2)): 8.00
- Weekly Symptomatic RP Attacks Change from Baseline, Mean (SD) [3]: −4.50 (3.536)
- Weekly Symptomatic RP Attacks Change from Baseline, Median [3]: −4.50
- Weekly Symptomatic RP Attacks Percent Change from Baseline, Mean (SD) [3]: −33.73 (7.296) %
- Weekly Symptomatic RP Attacks Percent Change from Baseline, Median [3]: −33.73%
- Weekly Symptomatic RP Attacks, Mean (SD) [3]: 8.00 (4.243)
- Weekly Symptomatic RP Attacks, Median [3]: 8.00
- Weekly Symptomatic RP Attacks Change from Baseline, Mean (SD) [4]: −4.50 (3.536)
- Weekly Symptomatic RP Attacks Change from Baseline, Median [4]: −4.50
- Weekly Symptomatic RP Attacks Percent Change from Baseline, Mean (SD) [4]: −33.73 (7.296) %
- Weekly Symptomatic RP Attacks Percent Change from Baseline, Median [4]: −33.73%
- Weekly Symptomatic RP Attacks, Mean (SD) [4]: 8.00 (4.243)
- Weekly Symptomatic RP Attacks, Median [4]: 8.00
- Weekly Symptomatic RP Attacks Change from Baseline, Mean [5]: −4.67
- Weekly Symptomatic RP Attacks Change from Baseline, Median [5]: −4.00
- Weekly Symptomatic RP Attacks Percent Change from Baseline, Mean [5]: −40.21%
- Weekly Symptomatic RP Attacks Percent Change from Baseline, Median [5]: −42.86%
- Weekly Symptomatic RP Attacks, Mean [5]: 7.67
- Weekly Symptomatic RP Attacks, Median [5]: 5.00
- Weekly Symptomatic RP Attacks Change from Baseline, Mean (SD) [6]: −3.00
- Weekly Symptomatic RP Attacks Change from Baseline, Median [6]: −3.00
- Weekly Symptomatic RP Attacks Percent Change from Baseline, Mean (SD) [6]: −42.86%
- Weekly Symptomatic RP Attacks Percent Change from Baseline, Median [6]: −42.86%
- Weekly Symptomatic RP Attacks, Mean (SD) [6]: 4.00
- Weekly Symptomatic RP Attacks, Median [6]: 4.00
- Weekly Symptomatic RP Attacks Change from Baseline, Mean (SD) [7]: −5.50 (2.121)
- Weekly Symptomatic RP Attacks Change from Baseline, Median [7]: −5.50
- Weekly Symptomatic RP Attacks Percent Change from Baseline, Mean (SD) [7]: −38.89 (7.857) %
- Weekly Symptomatic RP Attacks Percent Change from Baseline, Median [7]: −38.89%
- Weekly Symptomatic RP Attacks, Mean (SD) [7]: 9.50 (6.364)
- Weekly Symptomatic RP Attacks, Median [7]: 9.50
- Weekly Symptomatic RP Attacks Change from Baseline, Mean (SD) [8]: −4.67 (2.082)
- Weekly Symptomatic RP Attacks Change from Baseline, Median [8]: −4.00
- Weekly Symptomatic RP Attacks Percent Change from Baseline, Mean (SD) [8]: −40.21 (6.009) %
- Weekly Symptomatic RP Attacks Percent Change from Baseline, Median [8]: −42.86%
- Weekly Symptomatic RP Attacks, Mean (SD) [8]: 7.67 (5.508)
- Weekly Symptomatic RP Attacks, Median [8]: 5.00
- Weekly Symptomatic RP Attacks Change from Baseline, Mean [9]: −3.63
- Weekly Symptomatic RP Attacks Change from Baseline, Median [9]: −3.50
- Weekly Symptomatic RP Attacks Percent Change from Baseline, Mean [9]: −25.00%
- Weekly Symptomatic RP Attacks Percent Change from Baseline, Median [9]: −28.17%
- Weekly Symptomatic RP Attacks, Mean [9]: 9.75
- Weekly Symptomatic RP Attacks, Median [9]: 10.50
- Weekly Symptomatic RP Attacks Change from Baseline, Mean (SD) [10]: −0.50
- Weekly Symptomatic RP Attacks Change from Baseline, Median [10]: −0.50
- Weekly Symptomatic RP Attacks Percent Change from Baseline, Mean (SD) [10]: −4.76%
- Weekly Symptomatic RP Attacks Percent Change from Baseline, Median [10]: −4.76%
- Weekly Symptomatic RP Attacks, Mean (SD) [10]: 10.00
- Weekly Symptomatic RP Attacks, Median [10]: 10.00
- Weekly Symptomatic RP Attacks Change from Baseline, Mean (SD) [11]: −4.67 (2.517)
- Weekly Symptomatic RP Attacks Change from Baseline, Median [11]: −5.00
- Weekly Symptomatic RP Attacks Percent Change from Baseline, Mean (SD) [11]: −31.75 (6.199) %
- Weekly Symptomatic RP Attacks Percent Change from Baseline, Median [11]: −28.57%
- Weekly Symptomatic RP Attacks, Mean (SD) [11]: 9.67 (4.163)
- Weekly Symptomatic RP Attacks, Median [11]: 11.00
- Weekly Symptomatic RP Attacks Change from Baseline, Mean (SD) (Pooled Cilnidipine 20 mg and Cilnidipine 20 mg + Tadalafil 5 mg, n 4, Excluding Outliers): −3.63 (2.926)
